Results: US5474989A, “Drug composition” (priority 1988, dated 1995)

Columns and labels:
[1] = Solubility of drugs in aqueous solutions of low molecular weight chitosan C-5 (Example 3); details: aqueous solution of C-5, varying concentration, 25° C., 10 days
Protocol: Each 5 mg of vitamin E and vitamin K was accurately weighed (this amount is chosen so as to exceed above the solubility limits of these drugs) and placed in a test tube. […] Each of the solutions which reached dissolution equilibrium was sampled with a pippette fitted with a cotton plug. The sample was filtered through a 0.45 μm membrane filter and the concentration of vitamin E or vitamin K was determined by means of UV-determination after extraction with chloroform.

[2] = Dissolution rate of drug into water, solid dispersion with low molecular weight chitosan C-5 versus drug alone (Example 4); format: physicochemical; details: drug alone without additive; 10 to 30 mg in 60 ml, 57 rpm, water 37° C.
Protocol: Each 3 parts by weight of the chitosan products C-0 to C-5 was added to 1 part by weight of flurbiprofen (denoted sometimes hereinafter as FP) and the mixture kneaded with the addition of water in an amount of 2-fold of that of the chitosan product for 1 hour. The kneaded mixture was dried under a reduced pressure at room temperature for 48 hours. A fraction of the particles that passed through 100-mesh standard sieve was employed as the solid dispersion. For each of these solid dispersions, the dissolution rate of FP into water at 37° C. was observed by the procedure given below:
500 ml of water were charged in a dissolution rate measuring device (made by Toyama Sangyo Co., Ltd.) maintained at 37° C. and thereto was further added each of the above solid dispersions in an amount corresponding to 40 mg as FP and the mixture was agitated at 91 rpm. The agitated mixture was sampled each in an amount of 3 ml at a regular time interval with a pipette fitted with a cotton plug. Each sample was filtered through a 0.45 μm membrane filter and the FP concentration of the filtrate was determined after extraction with chloroform.
The rate of dissolution was determined for drug compositions having the low molecular weight chitosan C-5 obtained in Reference Example 1, by observing the concentration of the drug in the same manner as in Example 1 at a regular time interval except that the drug was charged in an amount within the range of from 10 to 30 mg in 60 ml of solution and the agitation was effected at 57 rpm. The ratio of the dissolved amount of drug to the total charged amount of the drug was calculated. Results are summarized in FIGS. 5(A)- 5(G) in a corresponding graph. The experimental results for flurbiprofen are given here again.
The average dissolution time calculated from the rate of dissolution for each drug is recited in Table 3. The calculation of the average dissolution time was made basing on the method given in "Chem. Pharm. Bull.", 30, 1088 (1982).

[3] = Wetting contact angle of water drops on tablet surface (Example 7); format: physicochemical; details: tablet 2 cm diameter, 50 μl water drop
Protocol: Examination was effected for the samples of the solid dispersions as obtained in Example 5 and for each drug alone without any additive. The wetting was evaluated by determining the wetting contact angle of water drops on the surface of a tablet having a diameter of 2 cm obtained using an IR tabletting machine with a drop of water of 50 μl.

[4] = chitosan in a form of a solution of acetic acid salt, versus polyvinylpyrrolidone; cited from earlier work

Row | Wetting Contact Angle, Drug alone [3] | SMILES | dissolution characteristic curve type [1] | Average Dissolution Time, Drug alone [2] | solubility of drug with increasing concentration of low molecular weight chitosan [1] | effect of chitosan on the dissolution rate of kitasamycin [4]
1 | – | C[C@H]1C[C@H]2[C@@H]3CCC4=CC(=O)C=C[C@]4(C)[C@@]3(F)[C@@H](O)C[C@]2(C)[C@@]1(O)C(=O)CO [Betamethasone, betamethasone] | dissolution characteristic curve of Bs-type | 45.9 min | – | –
2 | – | C[C@H]1O[C@@H](O[C@H]2[C@@H](O)C[C@H](O[C@H]3[C@@H](O)C[C@H](O[C@H]4CC[C@@]5(C)[C@H](CC[C@@H]6[C@@H]5C[C@@H](O)[C@]5(C)[C@@H](C7=CC(=O)OC7)CC[C@]65O)C4)O[C@@H]3C)O[C@@H]2C)C[C@H](O)[C@@H]1O [Digoxin, digoxin] | – | 40.9 min | an increase in the solubility of the drug was recognized | –
3 | 55 ° | CC(C(=O)O)c1ccc(-c2ccccc2)c(F)c1 (centres unmarked) [Flurbiprofen, flurbiprofen] | – | 46.1 min | – | –
4 | – | O=C1NC(=O)C(c2ccccc2)(c2ccccc2)N1 [Phenytoin, phenytoin] | – | 35.9 min | an increase in the solubility of the drug was recognized | –
5 | – | C[C@]12C=CC(=O)C=C1CC[C@@H]1[C@@H]2[C@@H](O)C[C@@]2(C)[C@H]1CC[C@]2(O)C(=O)CO [Prednisolone, prednisolone] | – | 18.7 min | – | –
6 | 50 ° | C[C@]12C=CC(=O)C=C1CC[C@H]1[C@@H]3C[C@@H](O)[C@](O)(C(=O)CO)[C@@]3(C)C[C@H](O)[C@@]12F [Triamcinolone, triamcinolone] | – | 24.3 min | – | –
7 | – | CO[C@@H]1[C@@H](O[C@@H]2O[C@H](C)[C@@H](O[C@H]3C[C@@](C)(O)[C@@H](OC(=O)CC(C)C)[C@H](C)O3)[C@H](N(C)C)[C@H]2O)[C@@H](CC=O)C[C@@H](C)[C@@H](O)/C=C/C=C/C[C@@H](C)OC(=O)C[C@H]1O [kitasamycin] | – | – | – | lower than that of polyvinylpyrrolidone

Row | SMILES | Wetting Contact Angle, Drug alone [3] | dissolution characteristic curve type [1] | Average Dissolution Time, Drug alone [2] | solubility of drug with increasing concentration of low molecular weight chitosan [1] | effect of chitosan on the dissolution rate of kitasamycin [4]
8 | COc1ccc2c(c1)c(CC(=O)O)c(C)n2C(=O)c1ccc(Cl)cc1 [Indomethacin, indomethacin] | 50 ° | – | 24.8 min | – | –
